Test results from BindingDB's records for doi:10.1111/j.1476-5381.1996.tb15208.x (Smithkline Beecham Pharmaceuticals, 1996).
pKi: −log10 of the molar value.

Assays:
[1] = biological target: T1, 5-hydroxytryptamine receptor 1F (Homo sapiens, UniProt P30939)
T1 sequence (P30939 whole entry): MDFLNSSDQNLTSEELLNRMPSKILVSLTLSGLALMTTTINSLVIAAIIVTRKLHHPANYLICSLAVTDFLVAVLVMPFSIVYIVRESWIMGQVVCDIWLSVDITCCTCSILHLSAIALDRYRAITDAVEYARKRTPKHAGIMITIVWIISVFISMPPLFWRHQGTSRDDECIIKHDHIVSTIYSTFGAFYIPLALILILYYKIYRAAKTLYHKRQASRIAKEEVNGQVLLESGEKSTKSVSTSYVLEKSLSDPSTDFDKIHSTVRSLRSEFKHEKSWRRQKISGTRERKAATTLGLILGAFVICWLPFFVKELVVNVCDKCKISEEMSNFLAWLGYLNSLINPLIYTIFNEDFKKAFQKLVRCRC

[2] = biological target: Gamma-aminobutyric acid receptor subunit alpha-1 (Rattus norvegicus, UniProt P62813)
Sequence of Gamma-aminobutyric acid receptor subunit alpha-1 (P62813 whole entry): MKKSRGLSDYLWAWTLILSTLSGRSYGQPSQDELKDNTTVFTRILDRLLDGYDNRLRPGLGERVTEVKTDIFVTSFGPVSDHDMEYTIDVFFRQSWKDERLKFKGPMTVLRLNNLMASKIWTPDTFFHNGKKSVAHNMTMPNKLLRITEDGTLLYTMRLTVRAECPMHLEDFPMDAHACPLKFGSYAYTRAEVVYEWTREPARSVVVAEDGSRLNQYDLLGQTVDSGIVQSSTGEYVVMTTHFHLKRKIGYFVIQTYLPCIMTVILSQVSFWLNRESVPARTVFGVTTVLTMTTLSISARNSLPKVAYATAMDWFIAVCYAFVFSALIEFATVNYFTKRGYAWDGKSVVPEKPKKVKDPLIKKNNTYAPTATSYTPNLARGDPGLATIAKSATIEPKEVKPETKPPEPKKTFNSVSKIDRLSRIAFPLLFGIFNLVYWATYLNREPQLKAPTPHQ

[3] = biological target: 5-hydroxytryptamine receptor 2A (Homo sapiens, UniProt P28223)
Sequence of 5-hydroxytryptamine receptor 2A (P28223 whole entry): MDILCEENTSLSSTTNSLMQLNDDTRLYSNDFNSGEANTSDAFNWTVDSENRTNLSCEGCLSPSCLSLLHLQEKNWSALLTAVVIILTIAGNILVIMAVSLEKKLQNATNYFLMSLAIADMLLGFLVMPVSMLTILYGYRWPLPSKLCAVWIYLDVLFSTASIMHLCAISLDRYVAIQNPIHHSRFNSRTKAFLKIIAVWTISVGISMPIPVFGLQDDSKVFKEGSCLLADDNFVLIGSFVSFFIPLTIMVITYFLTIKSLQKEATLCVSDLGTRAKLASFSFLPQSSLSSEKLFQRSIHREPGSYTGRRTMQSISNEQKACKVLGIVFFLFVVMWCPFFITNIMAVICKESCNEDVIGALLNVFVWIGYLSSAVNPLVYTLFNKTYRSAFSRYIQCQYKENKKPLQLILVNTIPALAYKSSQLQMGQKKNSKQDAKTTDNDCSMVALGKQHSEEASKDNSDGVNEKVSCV

D(4) dopamine receptor = biological target: T2, D(4) dopamine receptor (Homo sapiens, UniProt P21917)
T2 sequence (P21917 whole entry): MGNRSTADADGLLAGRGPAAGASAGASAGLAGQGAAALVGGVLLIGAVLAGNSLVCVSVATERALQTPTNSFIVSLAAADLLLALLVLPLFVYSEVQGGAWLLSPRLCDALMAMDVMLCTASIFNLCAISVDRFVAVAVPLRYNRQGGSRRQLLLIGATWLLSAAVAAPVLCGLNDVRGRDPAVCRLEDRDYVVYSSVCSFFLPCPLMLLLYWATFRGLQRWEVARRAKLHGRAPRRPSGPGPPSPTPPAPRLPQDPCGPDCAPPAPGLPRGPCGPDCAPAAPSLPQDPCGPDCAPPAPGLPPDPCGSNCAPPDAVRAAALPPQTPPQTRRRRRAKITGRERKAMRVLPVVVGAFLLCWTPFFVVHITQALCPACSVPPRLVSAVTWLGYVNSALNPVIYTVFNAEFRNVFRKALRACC

D(2) dopamine receptor = D(2) dopamine receptor (Homo sapiens, UniProt P14416)
Sequence of D(2) dopamine receptor (P14416 whole entry): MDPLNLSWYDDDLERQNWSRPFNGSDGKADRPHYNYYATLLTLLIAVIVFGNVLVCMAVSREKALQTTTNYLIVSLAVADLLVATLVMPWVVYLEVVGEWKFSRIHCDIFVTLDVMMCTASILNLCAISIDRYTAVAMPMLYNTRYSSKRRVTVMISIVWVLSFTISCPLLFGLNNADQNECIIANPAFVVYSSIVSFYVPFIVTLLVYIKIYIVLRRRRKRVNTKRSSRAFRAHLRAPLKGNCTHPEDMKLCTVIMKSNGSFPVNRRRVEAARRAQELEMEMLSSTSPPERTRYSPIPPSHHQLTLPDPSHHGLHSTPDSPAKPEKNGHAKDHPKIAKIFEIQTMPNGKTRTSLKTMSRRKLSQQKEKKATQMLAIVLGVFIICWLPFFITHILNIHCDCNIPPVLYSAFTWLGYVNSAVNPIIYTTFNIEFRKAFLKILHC

[4] = biological target: 5-hydroxytryptamine receptor 2B (Rattus norvegicus, UniProt P30994)
Sequence of 5-hydroxytryptamine receptor 2B (P30994 whole entry): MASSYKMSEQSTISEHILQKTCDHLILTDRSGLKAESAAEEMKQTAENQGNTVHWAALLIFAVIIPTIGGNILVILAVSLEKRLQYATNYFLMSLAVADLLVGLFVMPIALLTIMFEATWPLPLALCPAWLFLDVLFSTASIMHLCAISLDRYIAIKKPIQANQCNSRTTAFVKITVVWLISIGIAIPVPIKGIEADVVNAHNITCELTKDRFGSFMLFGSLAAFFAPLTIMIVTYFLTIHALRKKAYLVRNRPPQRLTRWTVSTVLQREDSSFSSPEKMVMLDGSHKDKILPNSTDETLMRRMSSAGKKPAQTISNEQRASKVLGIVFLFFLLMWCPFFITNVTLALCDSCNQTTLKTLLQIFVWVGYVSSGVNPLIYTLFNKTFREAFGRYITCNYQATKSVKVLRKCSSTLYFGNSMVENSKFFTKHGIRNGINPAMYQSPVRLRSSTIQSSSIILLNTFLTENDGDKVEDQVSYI

Adenosine receptor A1 = biological target: T3, Adenosine receptor A1 (Rattus norvegicus, UniProt P25099)
T3 sequence (P25099 whole entry): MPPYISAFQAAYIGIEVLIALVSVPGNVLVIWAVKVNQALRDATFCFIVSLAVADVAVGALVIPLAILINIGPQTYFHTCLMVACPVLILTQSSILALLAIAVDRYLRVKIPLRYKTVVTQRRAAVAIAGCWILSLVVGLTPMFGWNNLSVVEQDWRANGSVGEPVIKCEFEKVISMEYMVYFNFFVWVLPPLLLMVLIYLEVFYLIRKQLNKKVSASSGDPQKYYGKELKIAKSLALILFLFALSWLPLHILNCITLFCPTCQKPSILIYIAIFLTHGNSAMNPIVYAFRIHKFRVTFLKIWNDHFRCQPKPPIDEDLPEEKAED

[5] = biological target: T4, 5-hydroxytryptamine receptor 3A (Rattus norvegicus, UniProt P35563)
T4 sequence (P35563 whole entry): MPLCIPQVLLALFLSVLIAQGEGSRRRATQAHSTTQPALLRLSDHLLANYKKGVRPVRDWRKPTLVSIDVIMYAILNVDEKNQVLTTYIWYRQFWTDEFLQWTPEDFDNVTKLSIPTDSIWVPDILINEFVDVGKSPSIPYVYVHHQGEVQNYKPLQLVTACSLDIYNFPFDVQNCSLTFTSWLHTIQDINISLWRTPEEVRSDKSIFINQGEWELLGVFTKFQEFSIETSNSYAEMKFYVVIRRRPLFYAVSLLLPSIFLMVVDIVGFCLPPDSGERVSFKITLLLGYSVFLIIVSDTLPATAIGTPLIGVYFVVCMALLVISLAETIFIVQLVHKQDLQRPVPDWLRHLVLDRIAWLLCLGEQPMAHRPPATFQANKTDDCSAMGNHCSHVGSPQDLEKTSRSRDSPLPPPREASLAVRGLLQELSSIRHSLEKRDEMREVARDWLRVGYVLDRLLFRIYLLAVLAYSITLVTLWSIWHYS

[6] = biological target: 5-hydroxytryptamine receptor 1E (Homo sapiens, UniProt P28566)
Sequence of 5-hydroxytryptamine receptor 1E (P28566 whole entry): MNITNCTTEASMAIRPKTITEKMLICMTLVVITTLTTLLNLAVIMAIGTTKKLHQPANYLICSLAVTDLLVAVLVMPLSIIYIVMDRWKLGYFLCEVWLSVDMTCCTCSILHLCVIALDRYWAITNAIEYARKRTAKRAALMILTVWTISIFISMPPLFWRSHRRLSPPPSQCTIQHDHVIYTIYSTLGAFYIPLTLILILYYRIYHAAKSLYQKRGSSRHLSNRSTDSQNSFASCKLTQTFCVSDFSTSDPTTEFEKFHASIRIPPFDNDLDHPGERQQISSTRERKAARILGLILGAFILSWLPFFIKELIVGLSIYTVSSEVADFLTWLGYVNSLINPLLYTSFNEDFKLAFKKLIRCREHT

[7] = biological target: 5-hydroxytryptamine receptor 7 (Homo sapiens, UniProt P34969)
Sequence of 5-hydroxytryptamine receptor 7 (P34969 whole entry): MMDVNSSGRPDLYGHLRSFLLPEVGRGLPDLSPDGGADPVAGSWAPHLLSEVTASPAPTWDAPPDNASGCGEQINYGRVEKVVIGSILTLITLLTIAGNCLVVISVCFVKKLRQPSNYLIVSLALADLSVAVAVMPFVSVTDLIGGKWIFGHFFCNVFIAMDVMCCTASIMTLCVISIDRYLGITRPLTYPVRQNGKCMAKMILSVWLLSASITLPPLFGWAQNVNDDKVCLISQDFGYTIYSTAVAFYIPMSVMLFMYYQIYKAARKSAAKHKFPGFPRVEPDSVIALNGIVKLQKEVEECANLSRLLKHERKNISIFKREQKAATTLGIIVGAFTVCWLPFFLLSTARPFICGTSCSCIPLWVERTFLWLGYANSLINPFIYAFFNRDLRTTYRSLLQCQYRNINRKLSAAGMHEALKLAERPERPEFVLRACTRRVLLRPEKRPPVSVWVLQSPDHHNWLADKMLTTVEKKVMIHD

D(3) dopamine receptor = D(3) dopamine receptor (Homo sapiens, UniProt P35462)
Sequence of D(3) dopamine receptor (P35462 as listed by the source): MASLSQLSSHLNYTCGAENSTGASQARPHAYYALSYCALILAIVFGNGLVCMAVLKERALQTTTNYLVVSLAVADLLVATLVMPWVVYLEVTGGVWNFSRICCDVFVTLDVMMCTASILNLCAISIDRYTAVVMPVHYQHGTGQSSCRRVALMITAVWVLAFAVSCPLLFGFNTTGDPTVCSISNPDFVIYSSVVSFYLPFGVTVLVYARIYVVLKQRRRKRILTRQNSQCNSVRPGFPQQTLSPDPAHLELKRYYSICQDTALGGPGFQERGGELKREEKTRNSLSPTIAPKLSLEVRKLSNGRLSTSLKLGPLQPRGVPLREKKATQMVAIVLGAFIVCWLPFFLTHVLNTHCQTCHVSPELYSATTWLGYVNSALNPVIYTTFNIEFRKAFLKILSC

[8] = biological target: 5-hydroxytryptamine receptor 1D (Cavia porcellus, UniProt Q60484)
Sequence of 5-hydroxytryptamine receptor 1D (Q60484 whole entry): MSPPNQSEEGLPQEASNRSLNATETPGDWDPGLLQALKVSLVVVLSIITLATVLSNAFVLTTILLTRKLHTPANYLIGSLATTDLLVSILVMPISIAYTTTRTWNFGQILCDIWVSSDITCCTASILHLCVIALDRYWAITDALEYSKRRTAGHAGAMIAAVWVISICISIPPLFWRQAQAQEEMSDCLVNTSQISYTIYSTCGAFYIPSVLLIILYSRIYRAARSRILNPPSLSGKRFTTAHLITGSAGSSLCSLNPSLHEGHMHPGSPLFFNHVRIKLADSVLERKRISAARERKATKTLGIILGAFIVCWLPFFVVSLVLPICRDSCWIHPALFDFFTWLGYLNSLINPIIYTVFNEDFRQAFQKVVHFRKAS

[9] = biological target: T5, Alpha-1A adrenergic receptor (Rattus norvegicus, UniProt P43140)
T5 sequence (P43140 whole entry): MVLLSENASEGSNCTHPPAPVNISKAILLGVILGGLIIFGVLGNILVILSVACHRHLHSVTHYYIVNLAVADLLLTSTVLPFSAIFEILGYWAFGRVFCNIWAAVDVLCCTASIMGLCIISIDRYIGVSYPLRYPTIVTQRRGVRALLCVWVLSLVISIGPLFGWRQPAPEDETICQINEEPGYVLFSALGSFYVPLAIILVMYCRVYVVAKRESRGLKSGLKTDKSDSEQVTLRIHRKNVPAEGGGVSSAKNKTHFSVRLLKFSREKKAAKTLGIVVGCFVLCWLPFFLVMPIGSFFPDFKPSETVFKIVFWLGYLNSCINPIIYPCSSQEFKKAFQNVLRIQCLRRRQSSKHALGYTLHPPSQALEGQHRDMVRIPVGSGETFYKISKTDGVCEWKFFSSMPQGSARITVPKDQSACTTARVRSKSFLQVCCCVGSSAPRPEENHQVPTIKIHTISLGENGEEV

Histamine H1 receptor = Histamine H1 receptor (Cavia porcellus, UniProt P31389)
Sequence of Histamine H1 receptor (P31389 whole entry): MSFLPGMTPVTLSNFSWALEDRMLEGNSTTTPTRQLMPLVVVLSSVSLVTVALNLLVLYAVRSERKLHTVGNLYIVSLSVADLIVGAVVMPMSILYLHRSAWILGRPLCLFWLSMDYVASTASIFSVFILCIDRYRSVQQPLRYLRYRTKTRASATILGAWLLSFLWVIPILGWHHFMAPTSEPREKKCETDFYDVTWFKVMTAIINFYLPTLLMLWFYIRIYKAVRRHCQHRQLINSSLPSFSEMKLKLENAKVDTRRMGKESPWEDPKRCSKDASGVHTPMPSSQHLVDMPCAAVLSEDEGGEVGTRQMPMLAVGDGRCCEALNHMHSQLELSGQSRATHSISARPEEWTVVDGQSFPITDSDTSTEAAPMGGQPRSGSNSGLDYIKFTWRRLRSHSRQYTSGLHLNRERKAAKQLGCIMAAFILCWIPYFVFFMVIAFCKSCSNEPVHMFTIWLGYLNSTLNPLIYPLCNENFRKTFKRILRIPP

pKi [1]: 5.30
pKi [2]: < 5.00
pKi [3]: 5.78
pKi (D(4) dopamine receptor): < 5.00
pKi (D(2) dopamine receptor): < 5.00
pKi [4]: 8.89
pKi (Adenosine receptor A1): < 5.00
pKi [5]: < 5.00
pKi [6]: 5.30
pKi [7]: 6.00
pKi (D(3) dopamine receptor): < 5.00
pKi [8]: 6.00
pKi [9]: < 5.00
pKi (Histamine H1 receptor): < 5.00
SMILES: Cn1ccc2cc3c(cc21)CCN3C(=O)Nc1cccnc1
